Test results: US20150031996A1, “SEMICONDUCTING POLYMER NANOPARTICLES AS PHOTOACOUSTIC MOLECULAR IMAGING PROBES” (The Board of Trustees of the Leland Stanford Junior …, priority 2013, published 2015)

Test: Kinetic study of ROS-mediated degradation of IR775S (fluorescence at 800 nm)
Format: physicochemical
Settings: presence of peroxynitrite (ONOO^−) and hypochlorite (ClO^−), 2 μM, 1×PBS pH=7.4
Method: FIGS. 26A and 26B illustrate a kinetic study of ROS-mediated degradation of 1R7755 by detecting its fluorescence decrease at 800 nm after addition of ROS.
FIG. 26B illustrates a time course of the fluorescence of 1R775S at 800 nm after addition of indicated ROS (FIG. 26B top: ONOO^−, ClO^−; FIG. 26B bottom: ^1O2 and H2O2) in 1×PBS (pH=7.4). [1R775]=1 μg/mL. [ROS]=2 μM.

SMILES: CN1C(=CC=C2CCCC(C=CC3=[N+](C)c4ccccc4C3(C)C)=C2SCCC(=O)O)C(C)(C)c2ccccc21.[O-][Cl+3]([O-])([O-])[O-] [1R775S, 2-[4′-(β-carboxyethylthio)-7′-(1″,3″,3″-trimethylindolenine)-3′,5′-trimethyleneheptatrien-1-yl]-1,3,3-trimethylindolenium perchlorate]
- degradation by ROS: nearly instant degradation
